Assay results reported in patent publication US8987285B2, “Pharmaceutical compositions, dosage forms and new forms of the compound of formula (I), and methods of use thereof” (Portola Pharmaceuticals, Inc., priority 2010, dated 2015).

Tests used:
[1] = Super-saturation measurement (CheqSol): intrinsic and kinetic solubility; type: physicochemical
Source text: Anal. Chem. 2005, 77(4), 983-990; 2—Box, K J. Völgyi, G. Baka, E. Stuart, M. Takács-Novák, K. Corner, J E A. Equilibrium vs. kinetic measurements of aqueous solubility, and the ability of compounds to supersaturate in solution—a validation study. J. Pharm. Sci. 2006, 95, 1298-1307; 3—Sköld, C. Winiwarter, S. Johan Wernevik, J. Bergström, F. Engström, L. Allen, R. Box, K. Corner, J. Mole, J. Hallberg, A. Lennernäs, H. Lundstedt, T. Ungell, A-L. Karlén, A. Presentation of a Structurally Diverse and Commercially Available Drug Data Set for Correlation and Benchmarking Studies. J. Med. Chem. 2006, 49(23), 6660-6671;
. Med. Chem.; 2007, 50 (5), 979-983; 5—Llinás, A. Box, K J. Burley, J C. Glen, R C. Goodman, J M. J. A new method for the reproducible generation of polymorphs: two forms of Sulindac with very different solubilities. […] 6—Box K et al, Using Measured pKa, Log P and Solubility to Investigate Supersaturation and Predict BCS Class, Current Drug Metabolism, 2008, 9, 869-878]
1—kinetic solubility is the concentration of a compound in solution at the time when an induced precipitate first appears
2—equilibrium solubility (also called thermodynamic solubility) is the concentration of compound in a saturated solution when excess solid is present, and solution and solid are at equilibrium
3—intrinsic solubility [Hörter, D.; Dressman, J. B. Adv. Drug Deliv. Rev., 1997, 25, 3-14] is the equilibrium solubility of the free acid or base form of an ionisable compound at a pH where it is fully un-ionized
The super-saturation ratio is calculated as the ratio of kinetic solubility divided by the Intrinsic Solubility.

[2] = Solubility-excipient screening (Sirius CheqSol, 0.15 M aqueous KCl); type: physicochemical; settings: drug:excipient 1:1 by weight, Form A titrated from pH 12 with 0.5 M HCl
Method: In all experiments, the compound of formula (II) and excipient were present at a 1:1 weight ratio. For each excipient, Form A of the potassium salt was titrated at an initial concentration of ˜1 mg/ml from pH 12 to low pH with 0.5 M HCl. A UV-turbidity probe was used to detect the presence of sample precipitate and all experiments were carried out according to standard CheqSol procedure.

[3] = Wettability: contact angle measurement with water on pressed powder; type: physicochemical; settings: for Contact angle: water, listed as A, in ° (unit assumed)
Method: Contact angel instrument: EasyDrop DSA15E (Krüss, Hamburg, Germany)
Syringe: NE44, diameter of needle 0.5 mm (Krüss, Hamburg, Germany)
The powder was pressed (approx 50 mg powder, 3 tons, 2 min) in tablets and analyzed by contact angle measurement. The angel between the solid and the liquid is measured after 0 and up to 60 seconds using water.
All determinations used the above method and the limit for the standards measurements are well within the given limits.

[4] = Saturation solubility, shake-flask with UV quantification; type: physicochemical; settings: for final pH measured of the supernatant / Saturation solubility: listed as The compound of formula (I), form A
Method: The FaSSIF and FeSSIF solutions were prepared using Phares SIF powder according to the formulation instructions and the SGF solution was prepared using the guidelines provided. […] The pH and temperature of the supernatant were measured on a SiriusT3 instrument.

[5] = cited from earlier work

CNc1cc2[nH]c(=O)n(-c3ccc(NC(=O)[N-]S(=O)(=O)c4ccc(Cl)s4)cc3)c(=O)c2cc1F.[K+] [Form A]
solubility kinetic ([1]; kinetic from dmso stock, CheqSol): 6.57 µg/mL | ratio super saturation ([1]; kinetic solubility divided by intrinsic solubility, listed as K-salt-Form A): 412 | solubility ([1]; thermodynamic from solid, CheqSol): 0.0159 µg/mL | pH first precipitation occurs [2]: 5.3 | Kinetic solubility ([2]; ~1 mg/ml): 12.57 µM | surface hydrophobilicity from contact angle ([3]; critical angle around 50° (>50° hydrophob <50° hydrophil), listed as polymorph A): hydrophob | Contact angle ([3]; 0 sec): 78.8 | Contact angle ([3]; 30 sec): 53.3 | Contact angle ([3]; 60 sec): 51.0 | final pH measured of the supernatant ([4]; FaSSIF pH 6.5-1w): 6.93 | Saturation solubility ([4]; FeSSIF pH 5.0-1w, mean N = 2): 2.76 µg/mL | final pH measured of the supernatant ([4]; FeSSIF pH 5.0-1w): 5.15 | Saturation solubility ([4]; Na Phosphate pH 6.8, mean N = 2): 20.25 µg/mL | final pH measured of the supernatant ([4]; Na Phosphate pH 6.8): 6.94 | Saturation solubility ([4]; Na-Acetate pH 4.5, mean N = 2): 0.48 µg/mL | final pH measured of the supernatant ([4]; Na-Acetate pH 4.5): 4.81 | Saturation solubility ([4]; SGF pH 2.1, mean N = 2): 2.24 µg/mL | final pH measured of the supernatant ([4]; SGF pH 2.1): 4.74 | solubility at 72 h ([4]; pH 6.5, fassif, thermodynamic from solid, FaSSIF pH 6.5-1w, mean N = 2): 107 µg/mL

NCCCC[C@H](N)C(=O)O [Lysine]
Aqueous Solubility [5]: free soluble
